Several values for one entry are separate records, joined by “and”; a condition that tells them apart may be missing. Equal values may be shown once.
How the values were obtained:
Assay type in all cases: in vivo
[1] = test system: Botrytis; experiment: Field trial, MDJ foliar spray on 'Maverick' strawberries, Botrytis incidence on berries; conditions: MDJ approx. 5 mM, 50 gallons per acre, two foliar sprays
Description: Methyl dihydrojasmonate (MDJ) was applied to fields of strawberry to investigate the efficacy of MDJ in preventing Botriytis disease. A composition comprising 22.6% w/v MDJ, 49.8% v/v TWEEN-20, and water was diluted at a rate of 32 oz. (1 liter) per 50 gallons of water (approximately a 5 mM solution of MDJ). The composition was then applied (at a rate of 50 gallons per acre) to an acre of ‘Maverick’ strawberries grown in Watsonville, CA on Aug. 18, 2021 and again on Sep. 2, 2021 using an electrostatic backpack sprayer (foliar spray). Plants were harvested in October 2021. MDJ plants were compared to strawberries treated with the grower standard; a rotation of Pristine® (pyraclostrobin and boscalid), Merivon® (pyraclostrobin), Luna® (fluopyram and trifloxystrobin), and Elevate® (fenhexamid). […] Out of four replicates of 10 plants each, the average incidence of Botrytis on berries in the MDJ treated acre was 11%, compared to 18.75% in the grower standard population.

[2] = test system: Botrytis cinerea; experiment: Hemp inoculated with Botrytis cinerea, visual disease score 0-5 at harvest; conditions: 8 replicates
Description: Culturing Botrytis cinerea: A Botrytis cinerea isolate was cultured onto potato-dextrose agar (PDA). It was resisolated by taking a mycelial plug from the edge of actively growing cultures every 2-3 weeks to maintain active growing culture. It was maintained at 20° C. under continuous light (˜58 pEin m^−2 s^−1).
Inoculating hemp: The inoculum was prepared by flooding a full grown B. cinerea PDA plate with DI water and 0.1% Tween-20 to create a suspension of fungal spores. Spore count was quantified.
In the first inoculation, a suspension of 1.2×10^4 spores of B. cinerea/mL was created, and 1.5 mL was applied to the top cola/inflorescence of each plant. Hemp was inoculated in the first week of flowering, with application to the underdeveloped inflorescences.
In the second inoculation, a suspension of 1.5×10^5 spores of B. cinerea/mL was created, and sucrose was added to 1% concentration, and the plants were sprayed until drip using a backpack sprayer.
Inoculated plants were placed in a growth chamber or controlled growth environment with a constant temperature of 20-25° C. and 50-70% relative humidity.
Treatment Conditions: Treatments comprising 1 mM or 5 mM jasmonate (MDJ) were applied alone or alongside a biological (Continuum™). These treatment conditions were compared to control (no MDJ, no biological). Each treatment group had 8 replicates. […]

[3] = test system: powdery mildew (Erysiphe necator); experiment: Vineyard trial, MDJ on cabernet sauvignon grapes, powdery mildew on leaf and fruit samples under the microscope; conditions: MDJ approx. 5 mM, 50 gallons per acre, four applications; grape leaf and fruit samples
Description: Methyl dihydrojasmonate (MDJ) was applied to fields of grape to investigate the efficacy of MDJ in preventing bunch rot on (Botrytis cinerea) and powdery mildew (Erysiphe necator) on grapes. A composition comprising 22.6% w/v MDJ, 49.8% v/v TWEEN-20, and water was diluted at a rate of 32 oz. (1 liter) per 50 gallons of water (approximately a 5 mM solution of MDJ). The composition was then applied (at a rate of 50 gallons per acre) to three acres (1245 vines/acre) of a cabernet sauvignon variety grown in Napa Valley, CA. There was a total of four applications between June and September using a ground spray rig. Several leaf and fruit samples were collected to access the presence of powdery mildew under the microscope and compared to leaf and fruit of plants treated with the grower standard.

[4] = test system: bunch rot (Botrytis cinerea); experiment: Vineyard trial, MDJ on cabernet sauvignon grapes, laccase analysed as measure of Botrytis prevalence; conditions: MDJ approx. 5 mM, 50 gallons per acre, four applications, control = grower standard
Description: Methyl dihydrojasmonate (MDJ) was applied to fields of grape to investigate the efficacy of MDJ in preventing bunch rot on (Botrytis cinerea) and powdery mildew (Erysiphe necator) on grapes. A composition comprising 22.6% w/v MDJ, 49.8% v/v TWEEN-20, and water was diluted at a rate of 32 oz. (1 liter) per 50 gallons of water (approximately a 5 mM solution of MDJ). The composition was then applied (at a rate of 50 gallons per acre) to three acres (1245 vines/acre) of a cabernet sauvignon variety grown in Napa Valley, CA. There was a total of four applications between June and September using a ground spray rig. To investigate the prevalence of Botrytis, the enzyme laccase was analyzed. Laccase can negatively impact wine by causing premature browning of bottled white wine and color degradation in red wine. The MDJ treated group had 2 units/ml, whereas the control (grower standard) had 5 units/ml. This level in the control means that Botrytis problems can be expected during the wine making process, whereas in the MDJ treated group, the value of 2 units/ml means there will be no issues with Botrytis during the wine making process.

Structure (SMILES): CCCCCC1C(=O)CCC1CC(=O)OC (stereo not drawn) [MDJ, methyl dihydrojasmonate]
- Average % incidence of Botrytis on berries ([1]; average of four replicates of 10 plants each): 11%
- % incidence of Botrytis ([1]; single replicates 1-4, 10 plants each, strawberry berries): 10% and 16% and 7% and 11%
- Average Disease Score ([2]; condition B: 1 mM MDJ foliar spray): 2.625
- Average Disease Score ([2]; condition C: 5 mM MDJ foliar spray): 2.250
- Control of powdery mildew compared to grower standard [3]: the same, or better, control of powdery mildew as the grower standard
- Laccase [4]: 2 units/ml

— US20250031697A1, “METHODS AND COMPOSITIONS TO PREVENT PLANT PESTS AND PATHOGENS” (Impello Biosciences, Inc., priority 2021, published 2025)
